Measured values taken from patent publication US9040501B2, “Compositions and methods for treating cancer” (Eisai Inc., priority 2009, dated 2015).
Read-outs that look alike come from different tables or passages of the source.

What was measured:
[1] = Pharmacokinetics in mice after IV and PO administrations; assay type: in vivo, male BALB-c mice; settings: for concentration at 0.167 hr / concentration at 0.5 hr / concentration at 1 hr / concentration at 2 hr / concentration at 4 hr / concentration at 6 hr / concentration at 8 hr / concentration at 24 hr: read-out: Plasma concentrations
Description: […]. All doses were prepared in phosphate buffered saline (PBS) and were administered at a volume of 5 mL/kg. Five mice per group were used in these studies. Blood samples were taken serially from the tail vein of each mouse at predetermined timepoints. Blood samples from all mice in each group were pooled together prior to processing for plasma. The pooled blood samples were spun down within 30-60 minutes after withdrawal and the plasma was harvested and frozen for assay. After preparation and extraction the samples were assayed by LC/MS/MS.

[2] = system: A2780 human ovarian cancer xenograft; assay: In vivo efficacy study in A2780 human ovarian cancer xenograft model; set-up: species or system female nude mice; settings: qdx5 for two weeks
Description: Animals were dosed daily from Monday to Friday for two weeks.
Female nude mice (NU/NU, strain code 088, 6 weeks old, Charles River Laboratory) were implanted subcutaneously with 5×10^6 A2780 cancer cells per mouse. On day 13 when the tumors were approximately 150 mm^3, treatment started as described in Table 9.
Tumor volume and regressions were followed over time. Tumor volume was calculated by (length×width^2)/2. Note that a complete regression was defined as no measurable tumor for at least 3 consecutive measurements; while a partial regression was defined as tumor shrinkage to equal or less than 50% of original tumor volume for 3 consecutive measurements. Tumor growth delay (TGD) was defined as the median number of days for the control and treatment groups to grow to 342.14 mm^3. The average tumor volume on the first day of treatment (day 13) is 171.07 mm^3.

cytidine deaminase (CDA) [3] = target: T1, cytidine deaminase (CDA) (Homo sapiens (Human), UniProt P32320); assay: Effect of ER-876437 on the half-life of gemcitabine in the presence of CDA in Tris-HCl buffer at 37° C.; assay type: biochemical
T1 sequence (P32320 whole entry): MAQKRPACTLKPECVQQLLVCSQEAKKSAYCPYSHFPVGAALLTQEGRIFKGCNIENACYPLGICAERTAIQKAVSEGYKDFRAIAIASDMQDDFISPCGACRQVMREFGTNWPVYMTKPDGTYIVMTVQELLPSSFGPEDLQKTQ
Description: This Example employed a Phenomenex Luna C18(2) HPLC column (100 Å 4.6×250 mm 5 μm). The solvent delivery system employed an HPLC quaternary pump, low pressure mixing. An autosampler having a variable loop, 0.1 to 100 μL range and temperature controlled thermostat was used. The UV detector can employ a dual wavelength detector, a diode array detector, a variable wavelength detector or equivalent, and can be recorded using chromatographic software (e.g., Waters Empower 2 Build 2154, Agilent ChemStation software version A.09.03 or higher for HPLC or equivalent). The analytical balance employed was capable of weighing ±0.1 mg. Degassed HPLC grade water and degassed HPLC grade acetonitrile were used as solvents for the mobile phases.
Gemcitabine Standard Control: 0.2 mM gemcitabine control was prepared by weighing […] of gemcitabine in a 10 mL volumetric flask. […] Solution was labeled as gemcitabine stock solution.

cytidine deaminase (CDA) [4] = target: T1, cytidine deaminase (CDA); assay: Effect of ER-876437 on the half-life of decitabine in the presence of CDA in Tris-HCl buffer at 37° C.; assay type: biochemical
Description: The solvent delivery system employed an HPLC quaternary pump, low pressure mixing. An autosampler having a variable loop, 0.1 to 100 μL range and temperature controlled thermostat was used. […] Degassed HPLC grade water and degassed HPLC grade acetonitrile were used as solvents for the mobile phases. […] [table]

murine lymphoma L1210 = settings: ER-876437 10 mg/kg/Veh
Description: Or, a stock of L1210 ascites in BSA solution was diluted to 1×10^4 cells/0.1 ml for use in the study mice.
The mice were prepared with intravenous (IV) injection of L1210 ascites (prepared as described above) one day prior to commencing the dosing. […] The total IV injection for all mice took about 50 minutes.
All solutions were stored on ice while dosing. Mice were dosed (intraperitoneally (IP) or per os (orally, PO)) twice a day (8 hours apart) for 4 consecutive days.
Dead mice were autopsied and observed for the presence of tumors in organs.

[5] = male, BALB-c, mouse, plasma, 10 mg/kg IV
[6] = male, BALB-c, mouse, plasma, 10 mg/kg PO

For `O=C1NCC=CCN1[C@@H]1O[C@H](CO)[C@@H](O)C1(F)F` [ER-876437, 1-((2R,4R,5R)-3,3-difluoro-4-hydroxy-5-(hydroxymethyl)tetrahydrofuran-2-yl)-3,4-dihydro-1H-1,3-diazepin-2(7H)-one], the “t1/2 after PO administration relative to IV administration” value ([1]; 10 mg/kg) was “roughly 2.5 fold”, the “AUC0-∞” value ([1]; 10 mg/kg IV) was 13071 ng·h/mL and the “AUC0-∞/D” value ([1]; 10 mg/kg IV) was 1307 ng · hr/mL/D. It also gave an AUCExtrap ([1]; 10 mg/kg IV) of 1.4%, a CL ([1]; 10 mg/kg IV) of 12.8 mL/min/kg and a dose-normalized exposures (AUC0-∞) ([1]; 10 mg/kg IV) of 1310 ng·h/mL per mg/kg. The t1/2 ([1]; 10 mg/kg IV) was 6.1 h, the “AUC0-∞” value ([1]; 10 mg/kg PO) was 9499 ng·h/mL and the “AUC0-∞/D” value ([1]; 10 mg/kg PO) was 950 ng · hr/mL/D. For the same molecule, the AUC(0-t) ([1]; 10 mg/kg PO) was 8579 ng·h/mL, the AUCExtrap ([1]; 10 mg/kg PO) was 9.7% and the t1/2 ([1]; 10 mg/kg PO) was 16.3 h. For the same molecule, the AUC(0-inf) [1, 5] was 13100 ng·h/mL, the clearance [1, 5] was 12.8 mL/min/kg and the half-life [1, 5] was 6.1 h. It also gave a concentration at 0.167 hr [1, 5] of 11800 ng/mL, a concentration at 0.5 hr [1, 5] of 7690 ng/mL and a concentration at 1 hr [1, 5] of 3470 ng/mL. The concentration at 2 hr [1, 5] was 1450 ng/mL, the concentration at 4 hr [1, 5] was 214 ng/mL and the concentration at 6 hr [1, 5] was 184 ng/mL. For the same molecule, the concentration at 8 hr [1, 5] was 64 ng/mL, the concentration at 24 hr [1, 5] was 20 ng/mL and the AUC(0-t) ([1]; male, BALB-c, mouse, plasma, 10 mg/kg IV, read-out: AUC0-t) was 12900 ng·h/mL. The Vd ([1]; male, BALB-c, mouse, plasma, 10 mg/kg IV, read-out: Vss) was 1.64 L/kg, the AUC(0-inf) [1, 6] was 9500 ng·h/mL and the Cmax [1, 6] was 8600 ng/mL. For the same molecule, the half-life [1, 6] was 16.3 h, the bioavailability ([1]; male, BALB-c, mouse, plasma, 10 mg/kg PO vs IV, calculated based on AUC0-t, read-out: F (bioavailability)) was 66.5% and the concentration at 0.167 hr [1, 6] was 8600 ng/mL. It also gave a concentration at 0.5 hr [1, 6] of 3720 ng/mL, a concentration at 1 hr [1, 6] of 4180 ng/mL and a concentration at 2 hr [1, 6] of 1140 ng/mL. The concentration at 4 hr [1, 6] was 146 ng/mL, the concentration at 6 hr [1, 6] was 36 ng/mL and the concentration at 8 hr [1, 6] was 103 ng/mL. For the same molecule, the concentration at 24 hr [1, 6] was 39 ng/mL, the AUC(0-t) ([1]; male, BALB-c, mouse, plasma, 10 mg/kg PO, read-out: AUC0-t) was 8580 ng·h/mL and the “regressions or tumor free survivors at day 41” value ([2]; gemcitabine 1 mg/kg PO alone or ER-876437 10 mg/kg PO alone) was “no regressions or tumor free survivors”. The “effect on tumor growth (FIG. 3)” value ([2]; gemcitabine 1 mg/kg PO and/or ER-876437 10 mg/kg PO (30 minutes prior)) was “no effect at all”, the “TGD (tumor growth delay)” value ([2]; gemcitabine 1 mg/kg PO and/or ER-876437 10 mg/kg PO (30 minutes prior), delay vs vehicle to reach 342.14 mm^3) was 2 days and the gemcitabine remaining (cytidine deaminase (CDA) [3]; CDA plus ER-876437 in the incubation mixture, after 7 h) was “greater than 95%”. The “inhibition of the effect of CDA on T1/2 of gemcitabine” value (cytidine deaminase (CDA) [3]; Tris-HCl buffer at 37° C.) was “nearly completely inhibited”, the “levels of ER-876437” value (cytidine deaminase (CDA) [3]; after 7 hours of exposure to CDA with gemcitabine) was “not affected” and the “inhibition of the effect of CDA on T1/2 of decitabine” value (cytidine deaminase (CDA) [4]; Tris-HCl buffer at 37° C.) was “nearly completely inhibited”. For the same molecule, the “levels of ER-876437” value (cytidine deaminase (CDA) [4]; after 12 hours exposure to CDA with decitabine) was “not affected”, the “Mean Liver wts (g) ± SD” value (murine lymphoma L1210; on autopsy) was 2.02 ± 0.07 g and the “Mean Spleen wts (g) ± SD” value (murine lymphoma L1210; on autopsy) was 0.37 ± 0.04 g. For the same molecule, the “Mean Survival (days) ± SD” value (murine lymphoma L1210; twice a day (8 hours apart), 4 days) was 7.6 ± 0.89 days and the “% ILS (Increased Life Span)” value (murine lymphoma L1210; vs vehicle group) was 2.70%.
